Results as given in the NIST ThermoML archive (doi:10.1021/acs.jced.5b00623).
Several values for one entry are separate records, joined by “and”; a condition that tells them apart may be missing. Equal values may be shown once.

O=C(C(F)(F)C(F)(F)F)C(F)(C(F)(F)F)C(F)(F)F [dodecafluoro-2-methylpentan-3-one]
Settings	mass density [kg/m3]	speed of sound [m/s]
225.01 K, 992.5 kPa, Liquid, Buoyancy - hydrostatic balance with magnetic suspension - two sinkers	1809.67	–
225.01 K, 6306.6 kPa, Liquid, Buoyancy - hydrostatic balance with magnetic suspension - two sinkers	1821.02	–
235 K, 11155 kPa, Liquid, Buoyancy - hydrostatic balance with magnetic suspension - two sinkers	1806.22	–
240 K, 16200 kPa, Liquid, Buoyancy - hydrostatic balance with magnetic suspension - two sinkers	1804.64	–
245 K, 21227 kPa, Liquid, Buoyancy - hydrostatic balance with magnetic suspension - two sinkers	1803.18	–
250 K, 26208 kPa, Liquid, Buoyancy - hydrostatic balance with magnetic suspension - two sinkers	1801.77	–
260 K, 1145.1 kPa, Liquid, Buoyancy - hydrostatic balance with magnetic suspension - two sinkers	1716.09	–
260 K, 6242.2 kPa, Liquid, Buoyancy - hydrostatic balance with magnetic suspension - two sinkers	1731.21	–
260 K, 12122 kPa, Liquid, Buoyancy - hydrostatic balance with magnetic suspension - two sinkers	1746.98	–
260 K, 18392 kPa, Liquid, Buoyancy - hydrostatic balance with magnetic suspension - two sinkers	1762.27	–
260 K, 27930 kPa, Liquid, Buoyancy - hydrostatic balance with magnetic suspension - two sinkers	1783.14	–
260 K, 36060 kPa, Liquid, Buoyancy - hydrostatic balance with magnetic suspension - two sinkers	1799.13	–
270 K, 8922.2 kPa, Liquid, Buoyancy - hydrostatic balance with magnetic suspension - two sinkers	1713.2	–
275 K, 12791 kPa, Liquid, Buoyancy - hydrostatic balance with magnetic suspension - two sinkers	1711.88	–
278.15 K, 83 kPa, Liquid, Vibrating tube method	1660.83	–
280 K, 16636 kPa, Liquid, Buoyancy - hydrostatic balance with magnetic suspension - two sinkers	1710.6	–
283.15 K, 83 kPa, Liquid, Vibrating tube method	1646.79	–
285 K, 20456 kPa, Liquid, Buoyancy - hydrostatic balance with magnetic suspension - two sinkers	1709.38	–
288.15 K, 83 kPa, Liquid, Vibrating tube method	1632.33	–
290 K, 24255 kPa, Liquid, Buoyancy - hydrostatic balance with magnetic suspension - two sinkers	1708.2	–
293.15 K, 83 kPa, Liquid, Vibrating tube method	1617.51	–
295 K, 28026 kPa, Liquid, Buoyancy - hydrostatic balance with magnetic suspension - two sinkers	1707.06	–
298.15 K, 83 kPa, Liquid, Vibrating tube method	1602.48	–
303 K, 1007.3 kPa, Liquid, Buoyancy - hydrostatic balance with magnetic suspension - two sinkers	1592.53	–
303 K, 1089 kPa, Liquid, Buoyancy - hydrostatic balance with magnetic suspension - two sinkers	1592.94	–
303 K, 5959.8 kPa, Liquid, Buoyancy - hydrostatic balance with magnetic suspension - two sinkers	1615.54	–
303 K, 6069.2 kPa, Liquid, Buoyancy - hydrostatic balance with magnetic suspension - two sinkers	1616.01	–
303 K, 12121 kPa, Liquid, Buoyancy - hydrostatic balance with magnetic suspension - two sinkers	1639.93	–
303 K, 22348 kPa, Liquid, Buoyancy - hydrostatic balance with magnetic suspension - two sinkers	1673.62	–
303 K, 28346 kPa, Liquid, Buoyancy - hydrostatic balance with magnetic suspension - two sinkers	1690.63	–
303 K, 33973 kPa, Liquid, Buoyancy - hydrostatic balance with magnetic suspension - two sinkers	1705.21	–
303.15 K, 83 kPa, Liquid, Vibrating tube method	1587.28	–
308.15 K, 83 kPa, Liquid, Vibrating tube method	1571.82	–
310 K, 4843.5 kPa, Liquid, Buoyancy - hydrostatic balance with magnetic suspension - two sinkers	1590.92	–
318 K, 9214.8 kPa, Liquid, Buoyancy - hydrostatic balance with magnetic suspension - two sinkers	1589.2	–
318 K, 9295.7 kPa, Liquid, Buoyancy - hydrostatic balance with magnetic suspension - two sinkers	1589.59	–
324.97 K, 65.34 kPa, Gas, Spherical resonator	–	90.45
324.97 K, 82.58 kPa, Gas, Spherical resonator	–	89.49
324.97 K, 100.55 kPa, Gas, Spherical resonator	–	88.41
324.97 K, 100.57 kPa, Gas, Spherical resonator	–	88.41

83 kPa, Liquid, Frequency=3 MHz, Sing-around technique in a fixed-path interferometer
Settings	speed of sound [m/s]
278.15 K	567.88
283.15 K	551.54
288.15 K	535.45
293.15 K	519.58
298.15 K	503.72
303.15 K	488.11
308.15 K	472.63

Settings	vapor or sublimation pressure
324.96 K, Liquid, Closed cell (Static) method	111.4 kPa and 111.4 kPa
